The values below come from patent publication US20210189327A1, “3D […] CONSTRUCTS AND METHODS OF MAKING THEREOF” (McMaster University, priority 2019, published 2021).

The subject of the test is MCF-7 cells. In words: Effect of actin cytoskeleton impairment on spheroid formation and consolidation. The test is classed as cell-based. Particulars: 100 nM; 1 hr pretreatment without (T-nT) or with (T-T) the same concentration during spheroid formation; 5×10^5 MCF-7 cells in large wells; P-value>0.05. The procedure:
Rapid Formation of Spheroidal Tissue Constructs. In order to form spheroidal tissue constructs, PDMS molds in the form of circular wells with spherical bottom were used. These molds were prepared by mixing PDMS and its curing agent with the ratio of 10:1 and casting it on the Poly lactic acid (PLA) master mold with negative of the required patterns. Master molds were designed using software Solidworks© and 3D printed using a Stereolithography (SLA) based 3D printer (Objet 24 Desktop 3D printer). A large and small well size were created with diameters of 4 and 2.5 mm respectively. MCF-7 (Michigan Cancer Foundation-7, a breast cancer cell line) cells were cultured in Dulbecco's Modified Eagle Medium (DMEM) (Thermofisher, high glucose) supplemented with 10% V/V fetal bovine serum (FBS) (Thermofisher, US origin) and 1% Penicillin-Streptomycin (Thermofisher, 10000 U/mL) until 70% confluent. Cells were trypsinized and detached from tissue culture flasks. Required number of cells (10^5 or 10^6) were aliquoted, precipitated using centrifugation, and resuspended in proper amount of medium (5 μL for small wells, 15 μL for large wells). The cell solution then was added to the equal amount of bovine collagen type I (Thermofisher, 5 mg/mL) and mixed to get a uniform distribution of cells. […]

Each structure is given as a SMILES string.

`C/C1=C/C(=O)O[C@@H]2C[C@@H](CC[C@H](C)/C=C\C=C\CC1)O[C@@](O)([C@@H]1CSC(=O)N1)C2` [latrunculin A, Latrunculin A]: the “difference between spheroid radii after 6 hrs versus untreated control (nT-nT)” value is “no meaningful difference”.
